Measurements as given in PubChem BioAssay AID1259411 (Chemical Carcinogenesis Research Information System (CCRIS), 2018).
Calls of active or inactive are those of the source. How the calls were made is not given here.

System: rodent carcinogenicity bioassays, tumor incidence
Experiment: CCRIS carcinogenicity studies
How it was run: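 Archive of carcinogenicity, mutagenicity, tumor promotion and tumor inhibition results drawn from journals, NCI reports and other sources, expert-reviewed; covers 1985-2011 and is no longer updated.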

## Cc1cc(-c2ccc(N)c(C)c2)ccc1N
Species: MOUSE, Strain/Sex: BALB/FEMALE, Route: ORAL, Dose: 0, 5, 9, 18, 35, 70, 140 PPM IN DRINKING WATER 7 D/WK FOR DURATION OF STUDY (STUDY DURATION: 112 WK), Dose: 0, 5, 9, 18, 35, 70, 140 PPM IN DRINKING WATER 7 D/WK FOR DURATION OF STUDY (STUDY DURATION: 112 WK)
  carcinogen call: inactive; negative
Species: MOUSE, Strain/Sex: BALB/MALE, Route: ORAL, Dose: 0, 5, 9, 18, 35, 70, 140 PPM IN DRINKING WATER 7 D/WK FOR DURATION OF STUDY (STUDY DURATION: 112 WK), Dose: 0, 5, 9, 18, 35, 70, 140 PPM IN DRINKING WATER 7 D/WK FOR DURATION OF STUDY (STUDY DURATION: 112 WK), Tumor Site: Type of Lesion: LUNG: ALVEOLAR CELL ADENOMA AND ADENOCARCINOMA
  carcinogen call: active; positive
Species: RAT, Route: SUBCUTANEOUS, Tumor Site: Type of Lesion: EAR (ZYMBAL GLAND)
  carcinogen call: active; positive
Species: RAT, Strain/Sex: F344/FEMALE, Route: ORAL, Dose: 0, 30, 70, 150 PPM IN DRINKING WATER 7 D/WK FOR 60-61 WK (STUDY DURATION: 60-61 WK), Dose: 0, 30, 70, 150 PPM IN DRINKING WATER 7 D/WK FOR 60-61 WK (STUDY DURATION: 60-61 WK)
  carcinogen call: active; positive
Species: RAT, Strain/Sex: F344/MALE, Route: ORAL, Dose: 0, 30, 70, 150 PPM IN DRINKING WATER 7 D/WK FOR 60-61 WK (STUDY DURATION: 60-61 WK), Dose: 0, 30, 70, 150 PPM IN DRINKING WATER 7 D/WK FOR 60-61 WK (STUDY DURATION: 60-61 WK), Tumor Site: Type of Lesion: PREPUTIAL GLAND: ADENOMA, ADENOMA OR CARCINOMA, LARGE INTESTINE: ADENOMATOUS POLYP, ADENOCARCINOMA, SMALL INTESTINE: ADE, Tumor Site: Type of Lesion: PREPUTIAL GLAND: ADENOMA, ADENOMA OR CARCINOMA, LARGE INTESTINE: ADENOMATOUS POLYP, ADENOCARCINOMA, SMALL INTESTINE: ADE
  carcinogen call: active; positive

## C[C@]12CC[C@@H]3c4ccc(O)cc4CC[C@H]3[C@@H]1CC[C@@H]2O
Species: GUINEA PIG, Route: SUBCUTANEOUS IMPLANT, Tumor Site: Type of Lesion: UTERUS
  carcinogen call: active; positive
Species: HAMSTER, Route: SUBCUTANEOUS IMPLANT, Tumor Site: Type of Lesion: KIDNEY
  carcinogen call: active; positive
Species: HAMSTER, Strain/Sex: SYRIAN/MALE, Route: SUBCUTANEOUS IMPLANT, Dose: 0, 20 MG IN PELLETS IMPLANTED EVERY 2.5 MO FOR 9 MO (STUDY DURATION: 9 MO), Tumor Site: Type of Lesion: KIDNEY: TUMOR
  carcinogen call: active; positive
Species: MOUSE, Route: ORAL, SUBCUTANEOUS IMPLANT, Tumor Site: Type of Lesion: CERVIX, THYMUS GLAND, MAMMARY GLAND, UTERUS, VAGINA, Tumor Site: Type of Lesion: CERVIX, THYMUS GLAND, MAMMARY GLAND, UTERUS, VAGINA
  carcinogen call: active; positive
Species: MOUSE, Route: SUBCUTANEOUS, Tumor Site: Type of Lesion: LYMPHATIC SYSTEM
  carcinogen call: active; positive
Species: MOUSE, Strain/Sex: BALB/CCRGL/FEMALE, Route: SUBCUTANEOUS, Dose: 5 UG DAILY FOR 5 D BEGINNING 16 HR AFTER BIRTH (STUDY DURATION: 20 MO), Tumor Site: Type of Lesion: CERVICOVAGINAL TRACT: CARCINOMA (16/37)
  carcinogen call: active; positive
Species: RAT, Route: SUBCUTANEOUS IMPLANT, Tumor Site: Type of Lesion: MAMMARY GLAND, PITUITARY GLAND
  carcinogen call: active; positive

## O=[N+]([O-])c1ccc(O)cc1
Species: MOUSE, Strain/Sex: SWISS/FEMALE, Route: DERMAL, Dose: 0, 40, 80, 160 MG/KG IN ACETONE 3 D/WK FOR 78 WK (STUDY DURATION: 18 MO), Dose: 0, 40, 80, 160 MG/KG IN ACETONE 3 D/WK FOR 78 WK (STUDY DURATION: 18 MO)
  carcinogen call: inactive; negative
Species: MOUSE, Strain/Sex: SWISS/MALE, Route: DERMAL, Dose: 0, 40, 80, 160 MG/KG IN ACETONE 3 D/WK FOR 78 WK (STUDY DURATION: 18 MO), Dose: 0, 40, 80, 160 MG/KG IN ACETONE 3 D/WK FOR 78 WK (STUDY DURATION: 18 MO)
  carcinogen call: inactive; negative

## C=Cc1ccccn1
Species: MOUSE, Strain/Sex: STRAIN-A/FEMALE, Route: INTRAPERITONEAL, Dose: 0, 10 UMOL IN 0.1 ML OLIVE OIL 3/WK FOR 20 DOSES (TOTAL DOSE: 200 UMOL) (STUDY DURATION: 27 WK)
  carcinogen call: inactive; negative

## NC(N)=S
Species: RAT, Route: ORAL, Tumor Site: Type of Lesion: LIVER, THYROID GLAND, EAR (ZYMBAL GLAND), Tumor Site: Type of Lesion: LIVER, THYROID GLAND, EAR (ZYMBAL GLAND)
  carcinogen call: active; positive

## Nc1cccc2ccccc12
Species: DOG, Strain/Sex: BEAGLE/FEMALE, Route: ORAL, Dose: 22.0 MG/KG 5/WK
  carcinogen call: inactive; negative
Species: DOG, Strain/Sex: BEAGLE/MALE, Route: ORAL, Dose: 18.4 MG/KG 5/WK
  carcinogen call: inactive; negative

## O.O.O.O.O.O.O.O=S(=O)(O)O.[Co+2]
Species: MOUSE, Strain/Sex: B6C3F1/FEMALE, Route: INHALATION, Dose: 0, 0.3, 1, 3 MG/M3 6HR/D 5 D/WK FOR 105 WK (STUDY DURATION: 105 WK), Dose: 0, 0.3, 1, 3 MG/M3 6HR/D 5 D/WK FOR 105 WK (STUDY DURATION: 105 WK), Tumor Site: Type of Lesion: LUNG: ALVEOLAR/BRONCHIOLAR ADENOMA, ALVEOLAR/BRONCHIOLAR CARCINOMA
  carcinogen call: active; positive
Species: MOUSE, Strain/Sex: B6C3F1/MALE, Route: INHALATION, Dose: 0, 0.3, 1, 3 MG/M3 6HR/D 5 D/WK FOR 105 WK (STUDY DURATION: 105 WK), Dose: 0, 0.3, 1, 3 MG/M3 6HR/D 5 D/WK FOR 105 WK (STUDY DURATION: 105 WK), Tumor Site: Type of Lesion: LUNG: ALVEOLAR/BRONCHIOLAR ADENOMA, ALVEOLAR/BRONCHIOLAR CARCINOMA
  carcinogen call: active; positive
Species: RAT, Strain/Sex: F344/FEMALE, Route: INHALATION, Dose: 0, 0.3, 1, 3 MG/M3 6HR/D 5 D/WK FOR 105 WK (STUDY DURATION: 105 WK), Dose: 0, 0.3, 1, 3 MG/M3 6HR/D 5 D/WK FOR 105 WK (STUDY DURATION: 105 WK), Tumor Site: Type of Lesion: LUNG: ALVEOLAR/BRONCHIOLAR ADENOMA, ALVEOLAR/BRONCHIOLAR CARCINOMA, ADRENAL MEDULLA: BENIGN, COMPLEX, OR MALIGNANT PHEOC
  carcinogen call: active; positive
Species: RAT, Strain/Sex: F344/N/MALE, Route: INHALATION, Dose: 0, 0.3, 1, 3 MG/M3 6HR/D 5 D/WK FOR 105 WK (STUDY DURATION: 105 WK), Dose: 0, 0.3, 1, 3 MG/M3 6HR/D 5 D/WK FOR 105 WK (STUDY DURATION: 105 WK), Tumor Site: Type of Lesion: LUNG: ALVEOLAR/BRONCHIOLAR ADENOMA
  carcinogen call: active; positive
